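Dose response: 5 concentrations. Exposure: 48 h. Format: 96-well plates. Endpoint: linear interpolation; highest concentration if not reached. GI50 marks 50% less growth.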 Calls of active or inactive are those of the source. Rule as the data show it: active = GI50 up to about 1.1 µM and inactive = higher.
Key:
Experiment in all cases: NCI-60 cell line screen, 48 h
SF-539 = test system: SF-539
HT-29 = test system: HT-29
OVCAR-5 = test system: OVCAR-5
SK-MEL-5 = test system: SK-MEL-5
HCC 2998 = test system: HCC 2998
XF498 = test system: XF498
M19-MEL = test system: M19-MEL
CCRF-CEM = test system: CCRF-CEM
U-251 = test system: U-251
M14 = test system: M14
KM-20L2 = test system: KM-20L2
KM12 = test system: KM12
IGROV-1 = test system: IGROV-1
Malme-3M = test system: Malme-3M
HOP-18 = test system: HOP-18
NCI-H460 = test system: NCI-H460
OVCAR-4 = test system: OVCAR-4
SNB-78 = test system: SNB-78
SR = test system: SR
HCT-116 = test system: HCT-116
UACC-62 = test system: UACC-62
SNB-75 = test system: SNB-75
SK-OV-3 = test system: SK-OV-3
NCI-H226 = test system: NCI-H226
SF-295 = test system: SF-295
SW-620 = test system: SW-620
SK-MEL-2 = test system: SK-MEL-2
SNB-19 = test system: SNB-19
NCI-H522 = test system: NCI-H522
HL-60 = test system: HL-60
RPMI-8226 = test system: RPMI-8226
UACC-257 = test system: UACC-257
HCT-15 = test system: HCT-15
A549 = test system: A549
SK-MEL-28 = test system: SK-MEL-28
OVCAR-8 = test system: OVCAR-8
LXFL 529 = test system: LXFL 529
TK-10 = test system: TK-10
HOP-62 = test system: HOP-62
DMS-273 = test system: DMS-273
DLD-1 = test system: DLD-1
NCI-H23 = test system: NCI-H23
COLO 205 = test system: COLO 205
CAKI-1 = test system: CAKI-1
UO-31 = test system: UO-31
LOX IMVI = test system: LOX IMVI
EKVX = test system: EKVX
786-0 = test system: 786-0
K562 = test system: K562
MOLT-4 = test system: MOLT-4
ACHN = test system: ACHN
RXF 393 = test system: RXF 393
SF-268 = test system: SF-268
DMS-114 = test system: DMS-114
SN12C = test system: SN12C
OVCAR-3 = test system: OVCAR-3
A498 = test system: A498
HOP-92 = test system: HOP-92

SMILES: Cn1c(=O)oc2cc(C3CCC(=O)N3Cc3csc(-c4ccccc4)n3)ccc21 (stereo not drawn)
- GI50 (SF-539): > 100 µM (inactive)
- GI50 (HT-29): 79.1 µM (inactive)
- GI50 (OVCAR-5): > 100 µM (inactive)
- GI50 (SK-MEL-5): > 100 µM (inactive)
- GI50 (HCC 2998): > 100 µM (inactive)
- GI50 (XF498): 67.1 µM (inactive)
- GI50 (M19-MEL): > 100 µM (inactive)
- GI50 (CCRF-CEM): > 100 µM (inactive)
- GI50 (U-251): > 100 µM (inactive)
- GI50 (M14): > 100 µM (inactive)
- GI50 (KM-20L2): > 100 µM (inactive)
- GI50 (KM12): 76.2 µM (inactive)
- GI50 (IGROV-1): > 100 µM (inactive)
- GI50 (Malme-3M): > 100 µM (inactive)
- GI50 (HOP-18): > 100 µM (inactive)
- GI50 (NCI-H460): > 100 µM (inactive)
- GI50 (OVCAR-4): > 100 µM (inactive)
- GI50 (SNB-78): > 100 µM (inactive)
- GI50 (SR): 63.7 µM (inactive)
- GI50 (HCT-116): > 100 µM (inactive)
- GI50 (UACC-62): > 100 µM (inactive)
- GI50 (SNB-75): 25.3 µM (inactive)
- GI50 (SK-OV-3): > 100 µM (inactive)
- GI50 (NCI-H226): > 100 µM (inactive)
- GI50 (SF-295): > 100 µM (inactive)
- GI50 (SW-620): > 100 µM (inactive)
- GI50 (SK-MEL-2): > 100 µM (inactive)
- GI50 (SNB-19): > 100 µM (inactive)
- GI50 (NCI-H522): > 100 µM (inactive)
- GI50 (HL-60): 79.8 µM (inactive)
- GI50 (RPMI-8226): > 100 µM (inactive)
- GI50 (UACC-257): > 100 µM (inactive)
- GI50 (HCT-15): > 100 µM
- GI50 (A549): > 100 µM (inactive)
- GI50 (SK-MEL-28): > 100 µM (inactive)
- GI50 (OVCAR-8): > 100 µM (inactive)
- GI50 (LXFL 529): 96.6 µM (inactive)
- GI50 (TK-10): > 100 µM (inactive)
- GI50 (HOP-62): > 100 µM (inactive)
- GI50 (DMS-273): 89.5 µM (inactive)
- GI50 (DLD-1): 86.9 µM (inactive)
- GI50 (NCI-H23): > 100 µM (inactive)
- GI50 (COLO 205): 77.3 µM (inactive)
- GI50 (CAKI-1): > 100 µM (inactive)
- GI50 (UO-31): 52.5 µM (inactive)
- GI50 (LOX IMVI): > 100 µM (inactive)
- GI50 (EKVX): > 100 µM (inactive)
- GI50 (786-0): > 100 µM (inactive)
- GI50 (K562): 64.6 µM (inactive)
- GI50 (MOLT-4): 58.2 µM (inactive)
- GI50 (ACHN): > 100 µM (inactive)
- GI50 (RXF 393): 39.9 µM (inactive)
- GI50 (SF-268): > 100 µM (inactive)
- GI50 (DMS-114): > 100 µM (inactive)
- GI50 (SN12C): > 100 µM (inactive)

SMILES: O=[N+]([O-])c1cccc(/C=N/C23CC4CC(CC(C4)C2)C3)c1
- GI50 (SF-539): > 100 µM (inactive)
- GI50 (HT-29): > 100 µM (inactive)
- GI50 (OVCAR-5): > 100 µM (inactive)
- GI50 (SK-MEL-5): 70.8 µM (inactive)
- GI50 (HCC 2998): > 100 µM (inactive)
- GI50 (XF498): > 100 µM (inactive)
- GI50 (M19-MEL): > 100 µM (inactive)
- GI50 (CCRF-CEM): 25.1 µM (inactive)
- GI50 (U-251): > 100 µM (inactive)
- GI50 (M14): > 100 µM (inactive)
- GI50 (KM-20L2): > 100 µM (inactive)
- GI50 (KM12): > 100 µM (inactive)
- GI50 (IGROV-1): > 100 µM (inactive)
- GI50 (Malme-3M): > 100 µM (inactive)
- GI50 (HOP-18): > 100 µM (inactive)
- GI50 (NCI-H460): > 100 µM (inactive)
- GI50 (OVCAR-4): > 100 µM (inactive)
- GI50 (SNB-78): > 100 µM (inactive)
- GI50 (HCT-116): > 100 µM (inactive)
- GI50 (UACC-62): > 100 µM (inactive)
- GI50 (SNB-75): > 100 µM (inactive)
- GI50 (SK-OV-3): > 100 µM (inactive)
- GI50 (NCI-H226): > 100 µM (inactive)
- GI50 (SF-295): > 100 µM (inactive)
- GI50 (SW-620): 57.1 µM (inactive)
- GI50 (SK-MEL-2): > 100 µM (inactive)
- GI50 (SNB-19): > 100 µM (inactive)
- GI50 (NCI-H522): > 100 µM (inactive)
- GI50 (HL-60): 23.9 µM (inactive)
- GI50 (RPMI-8226): > 10 µM (inactive)
- GI50 (OVCAR-3): > 100 µM (inactive)
- GI50 (UACC-257): > 100 µM (inactive)
- GI50 (HCT-15): > 100 µM
- GI50 (A549): > 100 µM (inactive)
- GI50 (SK-MEL-28): > 100 µM (inactive)
- GI50 (OVCAR-8): > 100 µM (inactive)
- GI50 (LXFL 529): > 100 µM (inactive)
- GI50 (TK-10): > 100 µM (inactive)
- GI50 (HOP-62): > 100 µM (inactive)
- GI50 (DMS-273): > 100 µM (inactive)
- GI50 (DLD-1): > 100 µM (inactive)
- GI50 (NCI-H23): > 100 µM (inactive)
- GI50 (COLO 205): > 100 µM (inactive)
- GI50 (A498): > 100 µM (inactive)
- GI50 (CAKI-1): > 100 µM (inactive)
- GI50 (UO-31): > 100 µM (inactive)
- GI50 (LOX IMVI): 63.7 µM (inactive)
- GI50 (EKVX): > 100 µM (inactive)
- GI50 (HOP-92): > 100 µM (inactive)
- GI50 (786-0): > 100 µM (inactive)
- GI50 (K562): 29.7 µM (inactive)
- GI50 (MOLT-4): 74.1 µM (inactive)
- GI50 (ACHN): > 100 µM (inactive)
- GI50 (RXF 393): > 100 µM (inactive)
- GI50 (SF-268): > 100 µM (inactive)
- GI50 (DMS-114): > 100 µM (inactive)
- GI50 (SN12C): > 100 µM (inactive)

SMILES: COc1ccc(C(c2ccccc2C(=O)O)c2ccc(OC)c3ccccc23)c2ccccc12
- GI50 (SF-539): 12 µM (inactive)
- GI50 (HT-29): 11.9 µM (inactive)
- GI50 (OVCAR-5): 15.1 µM (inactive)
- GI50 (SK-MEL-5): 15.9 µM (inactive)
- GI50 (HCC 2998): 6.49 µM (inactive)
- GI50 (XF498): 20.9 µM (inactive)
- GI50 (M19-MEL): 12.5 µM (inactive)
- GI50 (CCRF-CEM): 8.79 µM (inactive)
- GI50 (U-251): 7.83 µM (inactive)
- GI50 (M14): 16.2 µM (inactive)
- GI50 (KM-20L2): 9.25 µM (inactive)
- GI50 (KM12): 8.15 µM (inactive)
- GI50 (IGROV-1): 11.3 µM (inactive)
- GI50 (Malme-3M): 13.3 µM (inactive)
- GI50 (HOP-18): 3.39 µM (inactive)
- GI50 (OVCAR-4): 10.7 µM (inactive)
- GI50 (SNB-78): 20.9 µM (inactive)
- GI50 (UACC-62): 4.71 µM (inactive)
- GI50 (SK-OV-3): 23.6 µM (inactive)
- GI50 (NCI-H226): 20 µM (inactive)
- GI50 (SF-295): 11.1 µM (inactive)
- GI50 (SW-620): 14.8 µM (inactive)
- GI50 (SNB-19): 11.2 µM (inactive)
- GI50 (NCI-H522): 12.6 µM (inactive)
- GI50 (HL-60): 7.33 µM (inactive)
- GI50 (RPMI-8226): 3.61 µM (inactive)
- GI50 (OVCAR-3): 13.5 µM (inactive)
- GI50 (UACC-257): 4.85 µM (inactive)
- GI50 (HCT-15): 8.63 µM
- GI50 (A549): 7.48 µM (inactive)
- GI50 (OVCAR-8): 10.5 µM (inactive)
- GI50 (LXFL 529): 6.35 µM (inactive)
- GI50 (TK-10): 19.9 µM (inactive)
- GI50 (HOP-62): 15.5 µM (inactive)
- GI50 (DMS-273): 14 µM (inactive)
- GI50 (DLD-1): 7.31 µM (inactive)
- GI50 (NCI-H23): > 10 µM (inactive)
- GI50 (COLO 205): 13 µM (inactive)
- GI50 (A498): 16.2 µM (inactive)
- GI50 (CAKI-1): 28.8 µM (inactive)
- GI50 (UO-31): 4.9 µM (inactive)
- GI50 (LOX IMVI): 18 µM (inactive)
- GI50 (EKVX): 20.2 µM (inactive)
- GI50 (HOP-92): 33.5 µM (inactive)
- GI50 (786-0): 15.8 µM (inactive)
- GI50 (K562): 5.2 µM (inactive)
- GI50 (MOLT-4): 5.62 µM (inactive)
- GI50 (ACHN): 10.4 µM (inactive)
- GI50 (SF-268): > 10 µM (inactive)
- GI50 (DMS-114): 7.06 µM (inactive)
- GI50 (SN12C): 10.9 µM (inactive)
